Like-named read-outs stand apart in the source and are kept apart here.
What was measured:
PNT2 cells = experiment: Chemosensitivity assay (MTT) in PNT2 cells; type: cell-based; details: for IC50: 24 h exposure + 48 h recovery, MTT, mean ± SD
Source text: (§1) The antiproliferative activity of the ind-py ligand and of complexes 1–4 against ovarian cancer A2780 (cisplatin sensitive) and A2780cisR (cisplatin resistant) cell lines was studied. The IC50 values obtained for all the complexes are shown in Table 2, together with values for cisplatin, which was used as a positive control (untreated cells for 100% viability as negative control). […] One of the major limitations of existing anticancer drugs is their poor selectivity towards cancer cells. Comparing the response of the cancer cell lines to the normal PNT2 cells provides a preliminary indication towards the selectivity of the compounds.
(§2) In vitro chemosensitivity tests were performed against A2780, A2780cisR and PNT2 cells. Cells were routinely maintained as monolayer cultures in RPMI medium supplemented with 10% foetal calf serum, penicillin (100 I.U./mL) and streptomycin (100 μg/mL), sodium pyruvate (1 mM) and L-glutamine (2 mM). For chemosensitivity studies, cells were incubated in 96-well plates at a concentration of 7.5 × 10^3 cells per well and the plates were incubated for 24 h at 37 °C and a 5% CO2 humidified atmosphere prior to drug exposure.
(§3) Complexes were dissolved in DMSO to provide stock solutions, which were further diluted with media to provide a range of final concentrations. Drug-media solutions were added to cells (the final concentration of DMSO was less than 1% (v/v) in all cases) and incubated for 24 h at 37 °C and 5% CO2 humidified atmosphere. The drug-media was removed from the wells and the cells were washed with PBS (100 μL, twice), and 100 μL of complete fresh media were added to each well. The plates were further incubated for 48 h at 37 °C in a 5% CO2 humidified atmosphere to allow for a period of recovery. 3-(4,5-dimethylthiazol-2-yl)-2,5-diphenyltetrazolium bromide (MTT) (20 μL, 2.5 mg/mL) was added to each well and incubated for 2 h at 37 °C and 5% CO2 humidified atmosphere. All solutions were then removed and 100 μL of DMSO was added to each well in order to dissolve the purple formazan crystals. A Thermo Scientific Multiskan EX microplate photometer was used to measure the absorbance in each well at 570 nm. Cell survival was determined as the absorbance of treated cells divided by the absorbance of controls and expressed as a percentage. The IC50 values were determined from plots of % survival against drug concentration. Each experiment was repeated in triplicates of triplicates and a mean value was obtained and stated as IC50 (μM) ± SD. Cisplatin was also used as a positive control.

A2780cisR cells = experiment: Chemosensitivity assay (MTT) in A2780cisR cells; type: cell-based; details: for IC50: 24 h exposure + 48 h recovery, MTT, mean ± SD
Source text: as §1, §2, §3

A2780 cells = experiment: Chemosensitivity assay (MTT) in A2780 cells; type: cell-based; details: for IC50: 24 h exposure + 48 h recovery, MTT, mean ± SD, read-out: IC50 A2780
Source text: as §1, §2, §3

[1] = Stability and aquation in MeOD/D2O by 1H-NMR; type: physicochemical; details: MeOD/D2O 1:1 v/v, 1.1 mM, 298 K, over 24 h
Procedure: Owing to the limited aqueous solubility of the complexes, all the reactivity experiments were performed using a mixture MeOD/D2O (1:1 v/v) as a solvent. The stability of complexes 1–4 in MeOD/D2O was studied via ^1H-NMR spectroscopy over a period of 24 h. […] The stability of complexes 1–4 in dimethylsulfoxide (DMSO;1.1 mM) was also studied by ^1H-NMR spectroscopy over a period of 24 h (Figure S1). […] The ligand ind-py is also stable in MeOD/D2O over 24 h (Figure S1E).
Aquation of the monodentate ligand (X) is a common behaviour for half-sandwich complexes of the type [(arene/Cp)M(NUN)X] and it is usually considered an activation step, which allows further reactions with the corresponding targets. To study if aquation of complexes 1–4 occurs in MeOD/D2O (1:1 v/v), experiments in the presence of either one molar equivalent of silver nitrate (to force the release of the monodentate Cl^- ligand), or NaCl (to block hydrolysis), were performed.
Complexes 1–4 were dissolved in MeOD (2.2 mM) and diluted to a final concentration of 1.1 mM with either MeOD or D2O. ^1H-NMR spectra were recorded at t ≤ 10 min, 12 h and 24 h. The samples were then reacted with either 1 mol. equiv. of silver nitrate to obtain the fully hydrolysed species or NaCl to block hydrolysis.

Compound | Cytotoxicity against PNT2 (in words) (PNT2 cells; Figure S14) | IC50 (PNT2 cells; Homo sapiens, PNT2) | Cytotoxicity against A2780cisR (in words) (A2780cisR cells; Figure S14) | IC50 (A2780cisR cells; Homo sapiens, A2780cisR) | Cytotoxicity against A2780 (in words) (A2780 cells; Figure S14) | IC50 (A2780 cells; Homo sapiens, A2780) | Stability in MeOD/D2O [1] | IC50 (PNT2 cells) | IC50 (A2780cisR cells) | IC50 (A2780 cells)
c1ccc(-c2cc3ccccc3[nH]2)nc1 [Ind-py, 2-(2-pyridinyl)-1H-indole, reference compound] | non-cytotoxic | > 100 µM | non-cytotoxic | > 100 µM | non-cytotoxic | > 100 µM | stable |  |  | 
N.N.[Cl][Pt][Cl] [Cisplatin, reference compound] |  |  |  |  |  |  |  | 43 ± 3 µM | 22.4 ± 0.5 µM | 10.3 ± 0.5 µM

Reference: paper PMC7583056, “Synthesis, Characterisation and In Vitro Anticancer Activity of Catalytically Active Indole-Based Half-Sandwich Complexes” (Molecules, 2020)
